Values quoted from earlier work in patent US20030215406A1, “Cosmetic or dermatological preparations containing aminogaunidine, derivatives thereof or structural analogs thereof” (Beiersdorf AG, priority 2000, published 2003).

N=C(N)NN [Aminoguanidine]
solubility in alcohol (solvent: alcohol): soluble
solubility in ether (solvent: ether): insoluble
solubility in water (solvent: water): soluble
